Experimental data as given in BindingDB's records for doi:10.1016/j.bmcl.2007.04.105 (Abbott Laboratories, 2007).

Target: Transient receptor potential cation channel subfamily V member 1 (Homo sapiens, UniProt Q8NER1)
Assay: Ca2+ Influx Functional Assay for the Determination of in Vitro Activity.
Details: pH 7.4; 22 °C; read-out: EC50 (the source's name)
Method: The functional antagonist activity of compounds at the TRPV1 receptor was determined with a Ca2+ influx assay by measuring the effect on capsaicin (0.05 uM) evoked increase in intracellular Ca2+ levels using cells stably expressing recombinant human TRPV1. All compounds were tested over an 11-point half-log concentration range. The fluorescent Ca2+ chelating dye fluo-4 was used as an indicator of the relative levels of Ca2+ in a 96-well format using a fluorescence imaging plate reader. Fluorescence readings were made at 1-5 s intervals over the 240 s course of the experimental run. The peak increase in relative fluorescence units was calculated and expressed as a percentage of the 0.05 uM capsaicin (control) response. Curve fits of the data were solved using a four-parameter logistic Hill equation in GraphPad Prism, and IC50 values were calculated.

Sequence of Transient receptor potential cation channel subfamily V member 1 (Q8NER1 whole entry): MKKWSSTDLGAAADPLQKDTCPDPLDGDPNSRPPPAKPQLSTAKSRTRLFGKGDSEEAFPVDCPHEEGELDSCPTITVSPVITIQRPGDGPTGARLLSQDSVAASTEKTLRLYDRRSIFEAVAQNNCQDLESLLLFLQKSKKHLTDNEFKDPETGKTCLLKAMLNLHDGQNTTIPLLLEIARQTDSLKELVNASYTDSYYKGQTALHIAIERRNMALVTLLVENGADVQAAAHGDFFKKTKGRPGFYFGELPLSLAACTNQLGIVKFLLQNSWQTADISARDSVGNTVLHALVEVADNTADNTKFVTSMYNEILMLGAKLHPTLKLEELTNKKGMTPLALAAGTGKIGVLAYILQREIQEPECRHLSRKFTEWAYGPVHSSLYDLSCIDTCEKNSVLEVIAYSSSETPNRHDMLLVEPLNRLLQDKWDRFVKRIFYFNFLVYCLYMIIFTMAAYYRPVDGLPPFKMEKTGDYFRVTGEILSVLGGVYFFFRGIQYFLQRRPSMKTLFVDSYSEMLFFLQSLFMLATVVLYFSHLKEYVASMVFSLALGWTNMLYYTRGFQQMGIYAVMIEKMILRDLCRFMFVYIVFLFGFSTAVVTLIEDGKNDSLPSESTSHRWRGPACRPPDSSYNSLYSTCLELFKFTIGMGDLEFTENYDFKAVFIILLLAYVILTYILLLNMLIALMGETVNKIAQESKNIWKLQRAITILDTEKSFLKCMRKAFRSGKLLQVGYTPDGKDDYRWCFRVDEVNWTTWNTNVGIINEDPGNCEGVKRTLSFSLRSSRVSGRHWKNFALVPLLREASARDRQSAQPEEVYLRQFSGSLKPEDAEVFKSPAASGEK

SMILES | IC50 [µM]
CC(NC(=O)Nc1cccc2cnccc12)c1ccc(C(F)(F)F)cc1 (configuration not stated) | 0.022
O=C(Nc1cccc2cnccc12)NC(c1ccccc1)c1ccccc1 [1-(diphenylmethyl)-3-isoquinolin-5-ylurea] | 0.6
CC(C)(C)c1ccc(C(NC(=O)Nc2cccc3cnccc23)c2ccccc2)cc1 (configuration not stated) [1-[(4-tert-butylphenyl)(phenyl)methyl]-3-isoquinolin-5-ylurea] | 0.125
CCC(NC(=O)Nc1cccc2cnccc12)c1ccccc1 (configuration not stated) [1-isoquinolin-5-yl-3-(1-phenylpropyl)urea] | 2.58
CC(C)(NC(=O)Nc1cccc2cnccc12)c1ccc(C(F)(F)F)cc1 [1-isoquinolin-5-yl-3-{2-[4-(trifluoromethyl)phenyl]propan-2-yl}urea] | 0.094
O=C(Nc1cccc2cnccc12)NC(c1ccc(C(F)(F)F)cc1)C1CCCCC1 (configuration not stated) [1-{cyclohexyl[4-(trifluoromethyl)phenyl]methyl}-3-isoquinolin-5-ylurea] | 0.287
Cc1ccc([C@@H](C)NC(=O)Nc2cccc3[nH]ncc23)cc1 [3-1H-indazol-4-yl-1-[(1R)-1-(4-methylphenyl)ethyl]urea] | 0.073
C[C@@H](NC(=O)Nc1cccc2[nH]ncc12)c1ccc2ccccc2c1 [3-1H-indazol-4-yl-1-[(1R)-1-(naphthalen-2-yl)ethyl]urea] | 0.123
C[C@@H](NC(=O)Nc1cccc2[nH]ncc12)c1ccc(C(F)(F)F)cc1 [3-1H-indazol-4-yl-1-[(1R)-1-[4-(trifluoromethyl)phenyl]ethyl]urea] | 0.041
Cc1ccc([C@H](C)NC(=O)Nc2cccc3[nH]ncc23)cc1 [3-1H-indazol-4-yl-1-[(1S)-1-(4-methylphenyl)ethyl]urea] | 0.749
C[C@H](NC(=O)Nc1cccc2[nH]ncc12)c1ccc2ccccc2c1 [3-1H-indazol-4-yl-1-[(1S)-1-(naphthalen-2-yl)ethyl]urea] | 3.75

Further lines, results first:

IC50 [µM] | SMILES
0.047 | CC(NC(=O)Nc1cccc2[nH]ncc12)c1ccc(C(F)(F)F)cc1 (racemic) [3-1H-indazol-4-yl-1-{1-[4-(trifluoromethyl)phenyl]ethyl}urea]
0.248 | C[C@H](NC(=O)Nc1cccc2[nH]ncc12)c1ccc(C(F)(F)F)cc1 [3-1H-indazol-4-yl-1-[(1S)-1-[4-(trifluoromethyl)phenyl]ethyl]urea]
15.9 | N#CCC(NC(=O)Nc1cccc2cnccc12)c1ccccc1 (configuration not stated) [3-(2-cyano-1-phenylethyl)-1-isoquinolin-5-ylurea]
0.017 | CC(NC(=O)Nc1cccc2cnccc12)c1ccc(C(C)(C)C)cc1C(C)(C)C (configuration not stated) [3-[1-(2,4-di-tert-butylphenyl)ethyl]-1-isoquinolin-5-ylurea]
0.026 | CC(NC(=O)Nc1cccc2cnccc12)c1ccc(Br)cc1 (configuration not stated) [3-[1-(4-bromophenyl)ethyl]-1-isoquinolin-5-ylurea]
0.02 | CCc1cc(C(C)(C)C)ccc1C(C)NC(=O)Nc1cccc2cnccc12 (configuration not stated) [3-[1-(4-tert-butyl-2-ethylphenyl)ethyl]-1-isoquinolin-5-ylurea]
0.046 | Cc1cc(C(C)(C)C)ccc1C(C)NC(=O)Nc1cccc2cnccc12 (configuration not stated) [3-[1-(4-tert-butyl-2-methylphenyl)ethyl]-1-isoquinolin-5-ylurea]
0.024 | CC(NC(=O)Nc1cccc2cnccc12)c1ccc(C(C)(C)C)cc1 (configuration not stated) [3-[1-(4-tert-butylphenyl)ethyl]-1-isoquinolin-5-ylurea]
0.143 | CC(C)(NC(=O)Nc1cccc2cnccc12)c1ccc(Cl)cc1 [3-[2-(4-chlorophenyl)propan-2-yl]-1-isoquinolin-5-ylurea]
31 | CN(C)CC(NC(=O)Nc1cccc2cnccc12)c1ccccc1 (configuration not stated) [3-[2-(dimethylamino)-1-phenylethyl]-1-isoquinolin-5-ylurea]
0.171 | O=C(Nc1cccc2cnccc12)NC(c1ccccc1)c1ccc(N2CCCCC2)cc1 (configuration not stated) [3-isoquinolin-5-yl-1-{phenyl[4-(piperidin-1-yl)phenyl]methyl}urea]
0.147 | O=C(Nc1cccc2cnccc12)NC(c1ccccc1)c1ccc(C(F)(F)F)cc1 (configuration not stated) [3-isoquinolin-5-yl-1-{phenyl[4-(trifluoromethyl)phenyl]methyl}urea]
0.019 | CC(NC(=O)Nc1cccc2cnccc12)c1ccc(C(F)(F)F)c(F)c1 (configuration not stated) [3-{1-[3-fluoro-4-(trifluoromethyl)phenyl]ethyl}-1-isoquinolin-5-ylurea]
0.109 | CCC(NC(=O)Nc1cccc2cnccc12)c1ccc(C(F)(F)F)c(F)c1 (configuration not stated) [3-{1-[3-fluoro-4-(trifluoromethyl)phenyl]propyl}-1-isoquinolin-5-ylurea]
0.476 | O=C(Nc1cccc2cnccc12)NC(c1ccc(C(F)(F)F)cc1)C1CCCC1 (configuration not stated) [3-{cyclopentyl[4-(trifluoromethyl)phenyl]methyl}-1-isoquinolin-5-ylurea]
0.149 | O=C(Nc1cccc2cnccc12)NC(c1ccc(C(F)(F)F)cc1)C1CC1 (configuration not stated) [3-{cyclopropyl[4-(trifluoromethyl)phenyl]methyl}-1-isoquinolin-5-ylurea]
